For orientation: IC50 means the concentration at which inhibition is half-maximal.

IC50 data for one compound are collected here from paper PMC6121621, “A Short Half-Life αIIbβ3 Antagonist ANTP266 Reduces Thrombus Formation” (International Journal of Molecular Sciences, 2018).

In this experiment the target is T1, integrin αIIbβ3 (Homo sapiens, UniProt P05106+P08514).
T1 construct: gene ITGA2B; Purified human integrin αIIbβ3; with integrin β3 (ITGB3, P05106)
The experiment can be described thus: ELISA: inhibition of purified human αIIbβ[…] binding to immobilized fibrinogen. For orientation: ELISA stands for enzyme-linked immunosorbent assay.

SMILES strings stand for the structures.

T1 sequence (P08514 32-887): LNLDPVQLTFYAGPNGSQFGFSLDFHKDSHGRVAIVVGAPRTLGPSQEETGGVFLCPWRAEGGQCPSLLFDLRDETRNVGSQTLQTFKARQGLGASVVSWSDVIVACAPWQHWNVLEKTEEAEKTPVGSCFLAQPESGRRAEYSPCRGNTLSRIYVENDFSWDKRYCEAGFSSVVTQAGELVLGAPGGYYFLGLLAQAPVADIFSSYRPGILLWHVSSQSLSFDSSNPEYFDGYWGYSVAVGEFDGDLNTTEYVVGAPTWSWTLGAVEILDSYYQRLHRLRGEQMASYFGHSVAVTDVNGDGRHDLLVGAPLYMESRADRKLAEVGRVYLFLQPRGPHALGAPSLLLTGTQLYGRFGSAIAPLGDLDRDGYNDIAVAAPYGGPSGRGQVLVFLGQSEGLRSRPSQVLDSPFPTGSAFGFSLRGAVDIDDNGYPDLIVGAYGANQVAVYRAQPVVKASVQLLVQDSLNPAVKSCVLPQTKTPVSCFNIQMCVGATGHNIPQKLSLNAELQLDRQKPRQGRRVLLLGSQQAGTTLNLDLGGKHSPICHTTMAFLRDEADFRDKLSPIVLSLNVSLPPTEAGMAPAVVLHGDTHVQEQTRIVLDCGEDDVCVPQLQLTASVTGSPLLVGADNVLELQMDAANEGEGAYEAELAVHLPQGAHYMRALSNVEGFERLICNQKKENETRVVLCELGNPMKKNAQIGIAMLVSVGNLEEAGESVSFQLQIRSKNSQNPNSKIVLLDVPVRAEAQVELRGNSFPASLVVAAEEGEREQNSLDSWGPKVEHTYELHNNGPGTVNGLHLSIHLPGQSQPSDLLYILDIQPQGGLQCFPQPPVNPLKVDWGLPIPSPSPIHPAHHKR
T1 sequence (P08514 891-1039): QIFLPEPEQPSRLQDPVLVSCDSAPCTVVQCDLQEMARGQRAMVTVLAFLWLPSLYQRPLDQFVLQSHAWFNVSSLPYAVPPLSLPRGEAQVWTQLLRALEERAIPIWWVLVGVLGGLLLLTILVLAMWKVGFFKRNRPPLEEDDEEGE
T1 sequence (P05106 27-788): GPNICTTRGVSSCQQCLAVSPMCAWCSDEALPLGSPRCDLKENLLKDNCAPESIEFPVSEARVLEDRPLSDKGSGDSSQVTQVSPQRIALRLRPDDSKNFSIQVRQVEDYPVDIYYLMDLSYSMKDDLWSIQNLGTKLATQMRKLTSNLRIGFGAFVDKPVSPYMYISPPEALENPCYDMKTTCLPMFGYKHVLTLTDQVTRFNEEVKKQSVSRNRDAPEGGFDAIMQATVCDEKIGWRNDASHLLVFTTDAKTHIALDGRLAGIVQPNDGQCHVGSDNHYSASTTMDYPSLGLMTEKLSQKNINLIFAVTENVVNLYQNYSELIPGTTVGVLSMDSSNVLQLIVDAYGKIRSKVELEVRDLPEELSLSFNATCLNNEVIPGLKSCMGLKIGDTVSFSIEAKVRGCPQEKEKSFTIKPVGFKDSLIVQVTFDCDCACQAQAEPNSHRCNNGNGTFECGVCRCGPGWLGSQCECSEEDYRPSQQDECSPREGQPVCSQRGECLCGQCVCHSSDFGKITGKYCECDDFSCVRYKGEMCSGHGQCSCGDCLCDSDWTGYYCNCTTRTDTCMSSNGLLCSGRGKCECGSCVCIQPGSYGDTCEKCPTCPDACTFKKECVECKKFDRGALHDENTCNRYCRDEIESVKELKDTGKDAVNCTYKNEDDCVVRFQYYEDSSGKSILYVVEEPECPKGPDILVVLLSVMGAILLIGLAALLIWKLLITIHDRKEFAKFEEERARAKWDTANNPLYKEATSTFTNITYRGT

`COc1ccc(S(=O)(=O)NC(Cc2ccc3cc(OCCN4CCNCC4)ccc3c2)C(=O)O)cc1` (stereo not shown) [ANTP266, 2-((4-methoxyphenyl)sulfonamido)-3-(6-(2-(piperazin-1-yl)ethoxy)naphthalene-2-yl) propanoic acid] registered an IC50 of 370 nM.
